Experimental data published in patent US20050059626A1, “Methods of preventing and treating viral infections using immunomodulatory polynucleotide sequences” (priority 2000, published 2005).
Like-named read-outs stand apart in the source and are kept apart here.

Columns and labels:
[1] = tested on: influenza A/Mississippi (H3N2) virus; format: in vivo, mice; conditions: for Pulmonary virus titer (log10/lung) Mean / Pulmonary virus titer (log10/lung) in mouse no. 1 / Pulmonary virus titer (log10/lung) in mouse no. 2 / Pulmonary virus titer (log10/lung) in mouse no. 3 / Pulmonary virus titer (log10/lung) in mouse no. 4 / Pulmonary virus titer (log10/lung) in mouse no. 5: non-ISS = SEQ ID NO:10
HSV-2 strain 186 = assay: Vaginal HSV-2 lethal challenge in mice; format: in vivo, Swiss Webster mice
Description: Outbred Swiss Webster mice, vaginally infected with HSV-2 strain 186, were used as a model of HSV infection. In these animals, the first indication of viral infection is hair loss and erythema (HLE) near the vagina occurring, on average, 5 days after inoculation. The next stage of infection is indicated by chronic wetness (CW) due to loss of bladder control, on average, 6 days after inoculation. A portion (about 50% of infected mice) of the animals develop hind limb paralysis (HLP) at approximately the same time point. Death, which is often preceded by evidence of CNS disease, occurs an average of 7-9 days after viral inoculation.
Mice were prepared for infection by an initial two-dose treatment with depopriven to synchronize cycles and to thin the vaginal epithelium. Vaginal mucous was removed by swabbing with calcium alginate, then a lethal challenge dose (determined by titration) of HSV-2 strain 186 was delivered by positive-displacement pipettor. Inoculated mice were randomly grouped into one of 4 treatment groups (n=15/group). Animals in group 1 received no treatment and served as a control for the study. Animals in the second and third groups were treated topically with 100 μg of an ISS-containing phosphorothioate oligonucleotide (5′-[…]-3′) (SEQ ID NO:1) suspended in phosphate-buffered saline (PBS). The groups were treated 2 or 6 hours after inoculation. As a vehicle control, group four was treated with PBS alone.
In another experiment, inoculated mice were randomly grouped into 8 treatment groups (n=16/group). Animals in the groups received treatments as outlined in Table 11 below. The groups were treated 2 hours after virus inoculation.

HSV-1 = assay: Viral titer from Vero cells pre-treated with oligonucleotide, HSV-1; format: cell-based, African Green monkey (Vero cells); conditions: for Viral titer, percent of control titer: cells infected with HSV-1
Experimental: (§1) Vero cells, a cell line derived from African Green monkey kidney, were pre-treated with varying concentrations of ISS or non-ISS oligonucleotides for varying times prior to the addition of HSV-1 or HSV-2. Oligonucleotides were used at 1 μg/ml or 10 μg/ml and the cells were incubated with the oligonucleotides for 30 seconds, 10 minutes or 24 hours. Viral titers were calculated as a percent of control titer generated by cells not treated with the oligonucleotides. The data are expressed as percent of control titer.

HSV-2 = assay: Viral titer from Vero cells pre-treated with oligonucleotide, HSV-2; format: cell-based, African Green monkey (Vero cells); conditions: cells infected with HSV-2
Experimental: as §1

canine papillomavirus = assay: Canine oral papilloma model, time to lesion regression; format: in vivo, Beagle puppies
Experimental: A model of canine oral papilloma was used to test the efficacy of ISS on papilloma. Beagle puppies were inoculated in the bucal mucosa with canine papillomavirus and developing papilloma lesions were monitored daily. Four groups of seven dogs each were treated with differing amount of ISS oligonucleotide (5′-[…]-3′ (SEQ ID NO:1), phosphorothioate backbone). One group received 50 μg ISS twice a week, another group received 500 μg ISS twice a week, the third group received 500 μg ISS one time only at the first signs of papilloma lesion development (injected within the papilloma lesion) and the fourth group (control group) received PBS twice a week. All dogs were monitored daily for the development of lesions and the time to regression.

[2] = 50 μg IP Day −1, virus Day 0, lungs Day 4
[3] = 50 μg IP Day −3, virus Day 0, lungs Day 4
[4] = 100 μg topical 2 h post-inoculation (PI)
[5] = 100 μg topical 6 h post-inoculation (PI)
[6] = cells pre-treated 1 μg/ml, 30 sec
[7] = cells pre-treated 1 μg/ml, 10 min
[8] = cells pre-treated 1 μg/ml, 24 hr
[9] = cells pre-treated 10 μg/ml, 30 sec
[10] = cells pre-treated 10 μg/ml, 10 min
[11] = cells pre-treated 10 μg/ml, 24 hr

Substance: 5′-TGACTGTGAACGTTCGAGATGA-3′ [SEQ ID NO: 1]
- Pulmonary virus titer (log10/lung) Mean [1, 2]: 6.8 log10/lung
- Pulmonary virus titer (log10/lung) in mouse no. 1 [1, 2]: 6.3 log10/lung
- Pulmonary virus titer (log10/lung) in mouse no. 2 [1, 2]: 6.8 log10/lung
- Pulmonary virus titer (log10/lung) in mouse no. 3 [1, 2]: 7.3 log10/lung
- Pulmonary virus titer (log10/lung) in mouse no. 4 [1, 2]: 6.8 log10/lung
- Pulmonary virus titer (log10/lung) in mouse no. 5 [1, 2]: 6.8 log10/lung
- Pulmonary virus titer (log10/lung) Mean [1, 3]: 6.9 log10/lung
- Pulmonary virus titer (log10/lung) in mouse no. 1 [1, 3]: 7.3 log10/lung
- Pulmonary virus titer (log10/lung) in mouse no. 2 [1, 3]: 5.8 log10/lung
- Pulmonary virus titer (log10/lung) in mouse no. 3 [1, 3]: 7.3 log10/lung
- Pulmonary virus titer (log10/lung) in mouse no. 4 [1, 3]: 6.8 log10/lung
- Pulmonary virus titer (log10/lung) in mouse no. 5 [1, 3]: 7.3 log10/lung
- Reduction in influenza virus titer compared to PBS ([1]; IP, 50 μg/mouse before viral infection): fails to cause a satisfactory significant reduction in virus titer
- Overall effect on HSV2 disease (incidence, survival, time to symptoms and death) (HSV-2 strain 186; 100 μg topical 2 or 6 hours after inoculation): decreased incidence (i.e., individuals showing symptoms of HSV2 infection), improved survival and delays in both appearance of symptoms and time to death
- Incidence (%) (HSV-2 strain 186; [4]): 60%
- Incidence (animals with symptoms/total) (HSV-2 strain 186; [4]): 9/15
- Survival (%) (HSV-2 strain 186; [4]): 40%
- Survival (survivors/total) (HSV-2 strain 186; [4]): 6/15
- Time to Death (HSV-2 strain 186; [4]): 12 days
- Time to Symptoms (HSV-2 strain 186; [4]): 6.6 days
- Incidence (%) (HSV-2 strain 186; [5]): 80%
- Survival (%) (HSV-2 strain 186; [5]): 27%
- Survival (survivors/total) (HSV-2 strain 186; [5]): 4/15
- Time to Death (HSV-2 strain 186; [5]): 10.6 days
- Time to Symptoms (HSV-2 strain 186; [5]): 5.75 days
- Change in average time to death (HSV-2 strain 186; animals that died, treated two hours after infection): increased by an average of over two days
- Effect on viral titers from infected cells (HSV-1; cells incubated with ISS prior to HSV infection in vitro (HSV-1 and HSV-2, Table 12)): no effect on the viral titers
- Viral titer, percent of control titer (HSV-1; [6]): 98% of control titer
- Viral titer, percent of control titer (HSV-1; [7]): 96% of control titer
- Viral titer, percent of control titer (HSV-1; [8]): 89% of control titer
- Viral titer, percent of control titer (HSV-1; [9]): 100% of control titer
- Viral titer, percent of control titer (HSV-1; [10]): 102% of control titer
- Viral titer, percent of control titer (HSV-1; [11]): 82% of control titer
- Viral titer, percent of control titer (HSV-2; [6]): 101% of control titer
- Viral titer, percent of control titer (HSV-2; [7]): 98% of control titer
- Viral titer, percent of control titer (HSV-2; [8]): 99% of control titer
- Viral titer, percent of control titer (HSV-2; [9]): 101% of control titer
- Viral titer, percent of control titer (HSV-2; [10]): 101% of control titer
- Viral titer, percent of control titer (HSV-2; [11]): 99% of control titer
- Average rate of lesion regression (canine papillomavirus; 500 μg one time at first signs of papilloma lesion): higher average rate of lesion regression than untreated dogs
- Average time for rapid regression (canine papillomavirus; 500 μg one time at first signs of papilloma, injected within the lesion): 25.1 days
- Regression time (canine papillomavirus; other treatment groups: 50 μg or 500 μg twice a week): did not show a marked difference in regression time
